Values belong to the compound of their own block, whether it stands above or below them.
Legend:
Type in all cases: physicochemical
[1] = Powder dissolution in 0.1N HCl (37° C.); conditions: for dissolution characteristics: 0.1N HCl, 37° C., FIG. 4, compared with samples B and C; for dissolution kinetics: in the media, FIGS. 4 and 5
Method: FIG. 4: Powder dissolution profiles in 0.1N HCl (37° C.) of samples of irbesartan. Dissolution experiments were executed in 0.1N HCt (37° C.) on the four micronised samples A-D of irbesartan. […] Thus with all other parameters being equal, it can be seen that the improved dissolution profile directly correlates to the increased water surface area of samples A and D.

[2] = Particle size profile of irbesartan samples; conditions: for D (v, 0.1) particle size: 10 % of particles smaller; for D (v, 0.5) particle size: 50 % of particles smaller; for D (v, 0.9) particle size: 90 % of particles smaller
Method: The particle size profile of samples A-D of irbesartan were tested (see Table 1). It can be seen that across the range the particle sizes were very similar. Thus any difference in dissolution kinetics of samples from the relevant batch cannot be attributed to particle size. The D values represent particle size medians from the detected particle size distribution curves. D(v, x) means that 100x % of particles are smaller than the corresponding D value, and 100-100x % of particles are larger. The samples were also subjected to the Brunauer-Emmett-Teller (BET)-nitrogen adsorption analysis to determine the total surface area of the samples as follows: […]

[3] = Gravimetric vapour sorption (GVS), water vapour adsorption; conditions: for water vapour adsorption (comparison): GVS, compared with samples B or C
Source text: GVS is a method traditionally used to detect quantitative weight changes of samples as a function of the relative humidity (RH). Samples, which can comprise solid-state samples such as powders and tablets, but also liquids, are exposed to a defined humidity profile. The corresponding weight change is continuously recorded via an ultra-microbalance. Defined humidity levels are established by mixing defined ratios of a dry carrier gas, usually nitrogen, and a wet stream, typically a water vapour saturated carrier gas such as nitrogen. The RH level is then controlled by the ratio of the dry:wet stream. To maintain isothermal conditions, the GVS apparatus which comprises a microbalance and humidification unit is set up in an incubator system held at a defined temperature. The primary information obtained by a typical commercial GVS system is: • Kinetics of water uptake: • The kinetic of the water uptake is a mass vs. time plot at constant RH level. The equilibrium between sample and humidity can be determined from this information. • Sorption isotherms: • The equilibrium weight changes at each humidity are related to the dry mass of the sample (i.e. the equilibrium mass at 0% RH). The equilibrium weight changes as a function of the RH level are the corresponding sorption isotherms of the sample. Typical sorption isotherms comprise adsorption, i.e. increasing RH levels, and desorption, i.e. decreasing RH levels, cycles. Typically, RH ranges from 0-95% RH are covered. For this purpose, water vapour sorption experiments can be carried out as follows: • Adsorption segment range 0-98% RH, preferably 0-50% RH. • Adsorption segment RH-step size of 10% RH or smaller, preferably 5% RH or 2.5% RH. • Desorption segment range 98-0% RH, preferably 50-0% RH. • Desorption segment RH-step size of 10% RH or smaller, preferably 5% RH or 2.5% RH. • Equilibration times at each humidity of 15 minutes and longer, preferably 30 minutes and longer, most preferably 60 minutes and longer. The important factor here is that all water vapour sorption uptakes used for further evaluation do reach equilibrium, i.e. that the weight change over time within each RH-step kinetic should be very small at the end of each RH segment. For these purposes, typical equilibration times are given. • Isothermal temperature in the range 5-50° C., preferably 25-37° C., most preferably about 25° C. • Sample masses of 10-50 mg, preferably 15-50 mg. […] Compression/compaction of the sample should be avoided in order to ensure that there are enough voids in any powder sample to allow the water vapour to penetrate. From these experiments, the primary information obtained is the sorption kinetic (mass vs. time at constant humidity) as well as the conventional sorption isotherm (weight change related to dry value vs. RH level), as previously described. The four samples A-D of irbesartan were also subjected to GVS to assess the extent of any water adsorption. […] The water adsorption results obtained from the GVS analysis are illustrated in Table 3.

[4] = BET nitrogen adsorption analysis, total specific surface area; conditions: for Specific Surface Area (nitrogen): BET nitrogen adsorption model, 77.3K
Source text: The D values represent particle size medians from the detected particle size distribution curves. D(v, x) means that 100x % of particles are smaller than the corresponding D value, and 100-100x % of particles are larger. The samples were also subjected to the Brunauer-Emmett-Teller (BET)-nitrogen adsorption analysis to determine the total surface area of the samples as follows:
Approximately 0.2-0.5 g of material (accurately weighed) was loaded into a surface area analyser glass tube fitted with a glass rod in order to minimise the overall free space. The sample was then outgased under vacuum at 30° C. for several hours. Upon completion of the outgas step, the sample tube was removed from the analyser and backfilled with helium to avoid refilling with air from the surrounding environment. The sample tube was reweighed in order to calculate the amount of dry sample used during the analysis step. The analyser tube was then loaded into the surface area analyser, and free space analysis was then conducted in order to account for the free volume in the tube and thus accurately measure the quantity of gas adsorbed directly on the powder surface. Nitrogen gas adsorption measurement was executed in a liquid nitrogen filled dewar at 77.3K. BET multipoint surface area determination was performed in the partial pressure range p/po=0.1-0.3 with 5 data points. Specific surface area calculation was performed by linear regression analysis of data according to the BET equation.

- dissolution characteristics [1]: enhanced dissolution characteristics
- D (v, 0.1) particle size [2]: 1 μm
- D (v, 0.5) particle size [2]: 3 μm
- D (v, 0.9) particle size [2]: 12 μm
- Water Adsorption ([3]; 5 % RH): 0.06 wt %
- Water Adsorption ([3]; 10 % RH): 0.09 wt %
- Water Adsorption ([3]; 15 % RH): 0.12 wt %
- Water Adsorption ([3]; 20 % RH): 0.14 wt %
- Water Adsorption ([3]; 25 % RH): 0.17 wt %
- Water Adsorption ([3]; 30 % RH): 0.20 wt %
- Water Adsorption ([3]; 35 % RH): 0.22 wt %
- Water Adsorption ([3]; 40 % RH): 0.24 wt %
- Water Adsorption ([3]; 50 % RH): 0.29 wt %
- Water Adsorption ([3]; 60 % RH): 0.34 wt %
- Water Adsorption ([3]; 70 % RH): 0.39 wt %
- Water Adsorption ([3]; 80 % RH): 0.44 wt %
- Water Adsorption ([3]; 90 % RH): 0.52 wt %
- water vapour adsorption (comparison) [3]: greater water vapour adsorption
- Rel. adsorbed amount n ([3]; RH 0.33 %): 0.0258 wt %
- Abs. adsorbed amount n ([3]; RH 4.98 %): 0.0110 mg
- Rel. adsorbed amount n ([3]; RH 4.98 %): 0.0592 wt %
- Abs. adsorbed amount n ([3]; RH 10.01 %): 0.0166 mg
- Rel. adsorbed amount n ([3]; RH 10.01 %): 0.0894 wt %
- Abs. adsorbed amount n ([3]; RH 15.00 %): 0.0219 mg
- Rel. adsorbed amount n ([3]; RH 15.00 %): 0.1179 wt %
- Abs. adsorbed amount n ([3]; RH 19.99 %): 0.0265 mg
- Rel. adsorbed amount n ([3]; RH 19.99 %): 0.1427 wt %
- Abs. adsorbed amount n ([3]; RH 25.02 %): 0.0320 mg
- Rel. adsorbed amount n ([3]; RH 25.02 %): 0.1723 wt %
- Abs. adsorbed amount n ([3]; RH 30.00 %): 0.0369 mg
- Rel. adsorbed amount n ([3]; RH 30.00 %): 0.1987 wt %
- Rel. adsorbed amount n ([3]; RH 34.98 %): 0.2207 wt %
- Rel. adsorbed amount n ([3]; RH 40.02 %): 0.2439 wt %
- Rel. adsorbed amount n ([3]; RH 49.98 %): 0.2902 wt %
- Rel. adsorbed amount n ([3]; RH 60.00 %): 0.3392 wt %
- Rel. adsorbed amount n ([3]; RH 70.02 %): 0.3855 wt %
- Rel. adsorbed amount n ([3]; RH 79.99 %): 0.4372 wt %
- Rel. adsorbed amount n ([3]; RH 90.01 %): 0.5152 wt %
- Rel. adsorbed amount n ([3]; RH 93.03 %): 0.5233 wt %
- Specific Surface Area (nitrogen) [4]: 5.17 m^2/g
Structure (SMILES): CCCCC1=NC2(CCCC2)C(=O)N1Cc1ccc(-c2ccccc2-c2nnn[nH]2)cc1 [Sample A, irbesartan]
- dissolution kinetics [1]: significantly faster dissolution kinetics

- dissolution profile ([1]; compared with samples A and D): significantly poorer dissolution profile
- D (v, 0.1) particle size [2]: 1 μm
- D (v, 0.5) particle size [2]: 3 μm
- D (v, 0.9) particle size [2]: 17 μm
- Water Adsorption ([3]; 5 % RH): 0.03 wt %
- Water Adsorption ([3]; 10 % RH): 0.04 wt %
- Water Adsorption ([3]; 15 % RH): 0.06 wt %
- Water Adsorption ([3]; 20 % RH): 0.07 wt %
- Water Adsorption ([3]; 25 % RH): 0.09 wt %
- Water Adsorption ([3]; 30 % RH): 0.10 wt %
- Water Adsorption ([3]; 35 % RH): 0.11 wt %
- Water Adsorption ([3]; 40 % RH): 0.13 wt %
- Water Adsorption ([3]; 50 % RH): 0.15 wt %
- Water Adsorption ([3]; 60 % RH): 0.18 wt %
- Water Adsorption ([3]; 70 % RH): 0.20 wt %
- Water Adsorption ([3]; 80 % RH): 0.23 wt %
- Water Adsorption ([3]; 90 % RH): 0.28 wt %
- specific surface area (ranking among samples A-D) ([4]; BET nitrogen adsorption): greatest specific surface area
- Specific Surface Area (nitrogen) [4]: 6.16 m^2/g
Structure (SMILES): CCCCC1=NC2(CCCC2)C(=O)N1Cc1ccc(-c2ccccc2-c2nnn[nH]2)cc1 [Sample B, irbesartan]

- D (v, 0.1) particle size [2]: 1 μm
- D (v, 0.5) particle size [2]: 5 μm
- D (v, 0.9) particle size [2]: 13 μm
- Water Adsorption ([3]; 5 % RH): 0.04 wt %
- Water Adsorption ([3]; 10 % RH): 0.07 wt %
- Water Adsorption ([3]; 15 % RH): 0.08 wt %
- Water Adsorption ([3]; 20 % RH): 0.09 wt %
- Water Adsorption ([3]; 25 % RH): 0.11 wt %
- Water Adsorption ([3]; 30 % RH): 0.13 wt %
- Water Adsorption ([3]; 35 % RH): 0.14 wt %
- Water Adsorption ([3]; 40 % RH): 0.15 wt %
- Water Adsorption ([3]; 50 % RH): 0.18 wt %
- Water Adsorption ([3]; 60 % RH): 0.21 wt %
- Water Adsorption ([3]; 70 % RH): 0.23 wt %
- Water Adsorption ([3]; 80 % RH): 0.27 wt %
- Water Adsorption ([3]; 90 % RH): 0.31 wt %
- Specific Surface Area (nitrogen) [4]: 3.16 m^2/g
Structure (SMILES): CCCCC1=NC2(CCCC2)C(=O)N1Cc1ccc(-c2ccccc2-c2nnn[nH]2)cc1 [Sample C, irbesartan]

- dissolution characteristics [1]: enhanced dissolution characteristics
- D (v, 0.1) particle size [2]: 1 μm
- D (v, 0.5) particle size [2]: 3 μm
- D (v, 0.9) particle size [2]: 7 μm
- Water Adsorption ([3]; 5 % RH): 0.07 wt %
- Water Adsorption ([3]; 10 % RH): 0.10 wt %
- Water Adsorption ([3]; 15 % RH): 0.13 wt %
- Water Adsorption ([3]; 20 % RH): 0.16 wt %
- Water Adsorption ([3]; 25 % RH): 0.19 wt %
- Water Adsorption ([3]; 35 % RH): 0.23 wt %
- Water Adsorption ([3]; 40 % RH): 0.26 wt %
- Water Adsorption ([3]; 50 % RH): 0.33 wt %
- Water Adsorption ([3]; 60 % RH): 0.39 wt %
- Water Adsorption ([3]; 70 % RH): 0.46 wt %
- Water Adsorption ([3]; 80 % RH): 0.52 wt %
- Water Adsorption ([3]; 90 % RH): 0.63 wt %
- water vapour adsorption (comparison) [3]: greater water vapour adsorption
- Specific Surface Area (nitrogen) [4]: 4.29 m^2/g
Structure (SMILES): CCCCC1=NC2(CCCC2)C(=O)N1Cc1ccc(-c2ccccc2-c2nnn[nH]2)cc1 [Sample D, irbesartan]
- dissolution kinetics [1]: significantly faster dissolution kinetics

Reference: patent US20090312380A1, “NOVEL COMPOSITIONS AND METHODS” (priority 2006, published 2009)
